Test results taken from ChEMBL document CHEMBL1128753, “Synthesis and bioactivity of photolabile sirolimus (rapamycin) analogs” (Bioorg Med Chem Lett, 1995).

Columns and labels:
T-cell = experiment: Tested for inhibition of T cell proliferation in the co-mitogen stimulated proliferation assay; type: functional, cell-based; details: Homo sapiens
Mus musculus = experiment: Mean Survival time of the graft was evaluated in murine skin allograft transplantation assay upon intraperitoneal administration of 4 mg/kg dose; type: functional

## CO[C@H]1C[C@@H]2CC[C@@H](C)[C@@](O)(O2)C(=O)C(=O)N2CCCC[C@H]2C(=O)O[C@H]([C@H](C)C[C@@H]2CC[C@@H](O)[C@H](OC)C2)CC(=O)[C@H](C)/C=C(\C)[C@@H](OC(=O)CCCCCNc2ccc(N=[N+]=[N-])cc2[N+](=O)[O-])[C@@H](OC)C(=O)[C@H](C)C[C@H](C)/C=C/C=C/C=C/1C
T-cell
  IC50: 7.8 nM

## CO[C@H]1C[C@@H]2CC[C@@H](C)[C@@](O)(O2)C(=O)C(=O)N2CCCC[C@H]2C(=O)O[C@H]([C@H](C)C[C@@H]2CC[C@@H](OC(=O)CCCCCCCNc3ccc(N=[N+]=[N-])cc3[N+](=O)[O-])[C@H](OC)C2)CC(=O)[C@H](C)/C=C(\C)[C@@H](O)[C@@H](OC)C(=O)[C@H](C)C[C@H](C)/C=C/C=C/C=C/1C
T-cell
  IC50: 10.2 nM

## CO[C@H]1C[C@@H]2CC[C@@H](C)[C@@](O)(O2)C(=O)C(=O)N2CCCC[C@H]2C(=O)O[C@H]([C@H](C)C[C@@H]2CC[C@@H](OC(=O)Cc3ccc(N=[N+]=[N-])cc3)[C@H](OC)C2)CC(=O)[C@H](C)/C=C(\C)[C@@H](O)[C@@H](OC)C(=O)[C@H](C)C[C@H](C)/C=C/C=C/C=C/1C
Mus musculus
  MST: 10.7 days
T-cell
  IC50: 1 nM

## CO[C@H]1C[C@@H]2CC[C@@H](C)[C@@](O)(O2)C(=O)C(=O)N2CCCC[C@H]2C(=O)O[C@H]([C@H](C)C[C@@H]2CC[C@@H](OC(=O)Cc3ccc(N=[N+]=[N-])c(I)c3)[C@H](OC)C2)CC(=O)[C@H](C)/C=C(\C)[C@@H](O)[C@@H](OC)C(=O)[C@H](C)C[C@H](C)/C=C/C=C/C=C/1C
Mus musculus
  MST: 12.7 days
T-cell
  IC50: 3 nM

## CO[C@H]1C[C@@H]2CC[C@@H](C)[C@@](O)(O2)C(=O)C(=O)N2CCCC[C@H]2C(=O)O[C@H]([C@H](C)C[C@@H]2CC[C@@H](O)[C@H](OC)C2)CC(=O)[C@H](C)/C=C(\C)[C@@H](OC(=O)Cc2ccc(N=[N+]=[N-])cc2)[C@@H](OC)C(=O)[C@H](C)C[C@H](C)/C=C/C=C/C=C/1C
T-cell
  IC50: 5.8 nM

## CO[C@H]1C[C@@H]2CC[C@@H](C)[C@@](O)(O2)C(=O)C(=O)N2CCCC[C@H]2C(=O)O[C@H]([C@H](C)C[C@@H]2CC[C@@H](O)[C@H](OC)C2)CC(=O)[C@H](C)/C=C(\C)[C@@H](OC(=O)CCCCCCCNc2ccc(N=[N+]=[N-])cc2[N+](=O)[O-])[C@@H](OC)C(=O)[C@H](C)C[C@H](C)/C=C/C=C/C=C/1C
T-cell
  IC50: 10.5 nM

## CO[C@H]1C[C@@H]2CC[C@@H](C)[C@@](O)(O2)C(=O)C(=O)N2CCCC[C@H]2C(=O)O[C@H]([C@H](C)C[C@@H]2CC[C@@H](OC(=O)CCCCCNc3ccc(N=[N+]=[N-])cc3[N+](=O)[O-])[C@H](OC)C2)CC(=O)[C@H](C)/C=C(\C)[C@@H](O)[C@@H](OC)C(=O)[C@H](C)C[C@H](C)/C=C/C=C/C=C/1C
T-cell
  IC50: 2.5 nM

## CO[C@H]1C[C@@H]2CC[C@@H](C)[C@@](O)(O2)C(=O)C(=O)N2CCCC[C@H]2C(=O)O[C@H]([C@H](C)C[C@@H]2CC[C@@H](O)[C@H](OC)C2)CC(=O)[C@H](C)/C=C(\C)[C@@H](O)[C@@H](OC)C(=O)[C@H](C)C[C@H](C)/C=C/C=C/C=C/1C [SIROLIMUS]
Mus musculus
  MST: 12.01 days
T-cell
  IC50: 9.8 nM
